The text below walks through data of PMC2229628 (The Journal of Endocrinology, 2008).

The target of the assay is T1, human GnRH receptor (hGnRHR) (Homo sapiens, UniProt P30968).
T1 sequence (P30968 1-328): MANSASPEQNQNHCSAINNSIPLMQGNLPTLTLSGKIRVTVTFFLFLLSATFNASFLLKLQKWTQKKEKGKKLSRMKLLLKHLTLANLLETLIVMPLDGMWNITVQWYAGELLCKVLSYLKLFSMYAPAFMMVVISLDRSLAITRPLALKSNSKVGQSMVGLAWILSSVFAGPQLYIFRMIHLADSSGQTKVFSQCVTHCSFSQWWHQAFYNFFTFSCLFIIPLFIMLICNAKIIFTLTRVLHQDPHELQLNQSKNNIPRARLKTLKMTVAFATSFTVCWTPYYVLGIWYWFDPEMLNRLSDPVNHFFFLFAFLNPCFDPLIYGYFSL
It is filed as cell-based.

`Cc1cc(C)cc(-c2[nH]c3ccc(C(C)(C)C(=O)N4CC5CCC4CC5)cc3c2[C@H](C)CNCCc2ccncc2)c1` [IN3, (2S)-2-[5-[2-(2-axabicyclo[2.2.2]oct-2-yl)-1,1-dimethy-2-oxoethyl]-2-(3,5-dimethylphenyl)-1H-indol-3-yl]-N-(2-pyridin-4-ylethyl)propan-1-amine]: the EC50 was 3–5×10^−8 M.
